Measurements: patent US20170190671A1, “BIS(ARYL)CATECHOL DERIVATIVES AS HERBICIDES” (E I DU PONT DE NEMOURS AND COMPANY, priority 2014, published 2017)

Tests used:
Experiment in all cases: Test C preemergence
Format in all cases: in vivo
[1] = test system: morningglory (Ipomoea coccinea); conditions: Ipomoea, pre-emergence, 336 h, scale 0 to 100, read-out: Plant response rating, Morningglory
Outline: (§1)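 Greenhouse test; preemergence on seeded loam-sand soil or spray on 1- to 4-leaf plants; solvent + surfactant vehicle; 13-15 day hold; visual comparison with controls; 0 (no effect)-100 (complete control).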

[2] = test system: velvetleaf (Abutilon theophrasti); conditions: Abutilon theophrasti, pre-emergence, scale 0 to 100, read-out: Plant response rating, Velvetleaf
Outline: as §1

[3] = test system: ragweed (common ragweed, Ambrosia elatior); conditions: Ambrosia artemisiifolia, pre-emergence, 336 h, scale 0 to 100, read-out: Plant response rating, Ragweed
Outline: as §1

corn (Zea mays) = conditions: Zea mays, pre-emergence, 336 h, scale 0 to 100
Outline: as §1

[4] = test system: waterhemp (common waterhemp, Amaranthus rudis); conditions: Amaranthus tuberculatus, pre-emergence, scale 0 to 100, read-out: Plant response rating, Waterhemp
Outline: as §1

[5] = test system: large (Lg) crabgrass (Digitaria sanguinalis); conditions: Digitaria sanguinalis, pre-emergence, 336 h, scale 0 to 100, read-out: Plant response rating, Crabgrass, Large
Outline: as §1

[6] = test system: barnyardgrass (Echinochloa crus-galli); conditions: Echinochloa crus-galli, pre-emergence, read-out: Plant response rating, Barnyardgrass
Outline: as §1

[7] = test system: Italian ryegrass (Lolium multiflorum); conditions: Lolium multiflorum, pre-emergence, 336 h, scale 0 to 100, read-out: Plant response rating, Ryegrass, Italian
Outline: as §1

[8] = test system: pigweed (Amaranthus retroflexus); conditions: Amaranthus retroflexus, pre-emergence, 336 h, scale 0 to 100, read-out: Plant response rating, Pigweed
Outline: as §1

[9] = test system: lambsquarters (Chenopodium album); conditions: Chenopodium album, pre-emergence, 336 h, scale 0 to 100, read-out: Plant response rating, Lambsquarters
Outline: as §1

[10] = test system: winter wheat (Triticum aestivum); conditions: Triticum aestivum, pre-emergence, 336 h, scale 0 to 100, read-out: Plant response rating, Wheat
Outline: as §1

[11] = test system: giant foxtail (Setaria faberii); conditions: Setaria faberi, pre-emergence, 336 h, scale 0 to 100, read-out: Plant response rating, Foxtail, Giant
Outline: as §1

soybean (Glycine max) = conditions: Glycine max, pre-emergence, scale 0 to 100, read-out: Plant response rating, Soybean
Outline: as §1

[12] = test system: johnsongrass (Sorghum halepense); conditions: Sorghum halepense, pre-emergence, 336 h, scale 0 to 100, read-out: Plant response rating, Johnsongrass
Outline: as §1

[13] = test system: galium (catchweed bedstraw, Galium aparine); conditions: Galium, pre-emergence, 336 h, scale 0 to 100, read-out: Plant response rating, Galium
Outline: as §1

## Fc1cccc(Oc2ncc(Cl)cn2)c1Oc1ncc(Cl)cn1 [Compound 21, 2,2′-[[3-fluoro-1,2-phenylene]bis(oxy)]bis[5-chloropyrimidine]]
[1]; 31 g ai/ha, preemergence
  pest or weed control at 31 g/ha: 80%
[1]; 62 g ai/ha, preemergence
  pest or weed control at 62 g/ha: 85%
[1]; 125 g ai/ha, preemergence
  pest or weed control at 125 g/ha: 98%
[1]; Preemergence, 16 g ai/ha
  pest or weed control at 16 g/ha: 70%
[2]; 31 g ai/ha, preemergence
  pest or weed control at 31 g/ha: 100%
[2]; 62 g ai/ha, preemergence
  pest or weed control at 62 g/ha: 100%
[2]; 125 g ai/ha, preemergence
  pest or weed control at 125 g/ha: 100%
[2]; Preemergence, 16 g ai/ha
  pest or weed control at 16 g/ha: 100%
[3]; 31 g ai/ha, preemergence
  pest or weed control at 31 g/ha: 85%
[3]; 62 g ai/ha, preemergence
  pest or weed control at 62 g/ha: 85%
[3]; 125 g ai/ha, preemergence
  pest or weed control at 125 g/ha: 85%
[3]; Preemergence, 16 g ai/ha
  pest or weed control at 16 g/ha: 65%
Corn (Zea mays); 31 g ai/ha, preemergence
  Corn plant response rating (crop injury, 0 = no effect, 100 = complete kill) at 31 g/ha: 25%
Corn (Zea mays); 62 g ai/ha, preemergence
  Corn plant response rating (crop injury, 0 = no effect, 100 = complete kill) at 62 g/ha: 45%
Corn (Zea mays); 125 g ai/ha, preemergence
  Corn plant response rating (crop injury, 0 = no effect, 100 = complete kill) at 125 g/ha: 98%
Corn (Zea mays); Preemergence, 16 g ai/ha
  Corn plant response rating (crop injury, 0 = no effect, 100 = complete kill) at 16 g/ha: 5%
[4]; 31 g ai/ha, preemergence
  pest or weed control at 31 g/ha: 100%
[4]; 62 g ai/ha, preemergence
  pest or weed control at 62 g/ha: 100%
[4]; 125 g ai/ha, preemergence
  pest or weed control at 125 g/ha: 100%
[4]; Preemergence, 16 g ai/ha
  pest or weed control at 16 g/ha: 100%
[5]; 31 g ai/ha, preemergence
  pest or weed control at 31 g/ha: 100%
[5]; 62 g ai/ha, preemergence
  pest or weed control at 62 g/ha: 100%
[5]; 125 g ai/ha, preemergence
  pest or weed control at 125 g/ha: 100%
[5]; Preemergence, 16 g ai/ha
  pest or weed control at 16 g/ha: 98%
[6]; 31 g ai/ha, preemergence, scale 0 to 100
  pest or weed control at 31 g/ha: 85%
[6]; 62 g ai/ha, preemergence, scale 0 to 100
  pest or weed control at 62 g/ha: 100%
[6]; 125 g ai/ha, preemergence, scale 0 to 100
  pest or weed control at 125 g/ha: 100%
[6]; Preemergence, 16 g ai/ha, scale 0 to 100 (0 no effect, 100 complete control)
  pest or weed control at 16 g/ha: 35%
[7]; 31 g ai/ha, preemergence
  pest or weed control at 31 g/ha: 50%
[7]; 62 g ai/ha, preemergence
  pest or weed control at 62 g/ha: 85%
[7]; 125 g ai/ha, preemergence
  pest or weed control at 125 g/ha: 90%
[7]; Preemergence, 16 g ai/ha
  pest or weed control at 16 g/ha: 10%
[8]; 31 g ai/ha, preemergence
  pest or weed control at 31 g/ha: 100%
[8]; 62 g ai/ha, preemergence
  pest or weed control at 62 g/ha: 100%
[8]; 125 g ai/ha, preemergence
  pest or weed control at 125 g/ha: 100%
[8]; Preemergence, 16 g ai/ha
  pest or weed control at 16 g/ha: 100%
[9]; 31 g ai/ha, preemergence
  pest or weed control at 31 g/ha: 100%
[9]; 62 g ai/ha, preemergence
  pest or weed control at 62 g/ha: 100%
[9]; 125 g ai/ha, preemergence
  pest or weed control at 125 g/ha: 98%
[9]; Preemergence, 16 g ai/ha
  pest or weed control at 16 g/ha: 100%
[10]; 31 g ai/ha, preemergence
  plant injury at 31 g/ha: 40%
[10]; 62 g ai/ha, preemergence
  plant injury at 62 g/ha: 50%
[10]; 125 g ai/ha, preemergence
  plant injury at 125 g/ha: 90%
[10]; Preemergence, 16 g ai/ha
  plant injury at 16 g/ha: 0%
[11]; 31 g ai/ha, preemergence
  pest or weed control at 31 g/ha: 100%
[11]; 62 g ai/ha, preemergence
  pest or weed control at 62 g/ha: 100%
[11]; 125 g ai/ha, preemergence
  pest or weed control at 125 g/ha: 100%
[11]; Preemergence, 16 g ai/ha
  pest or weed control at 16 g/ha: 90%
Soybean (Glycine max); 31 g ai/ha, preemergence
  plant injury at 31 g/ha: 90%
Soybean (Glycine max); 62 g ai/ha, preemergence
  plant injury at 62 g/ha: 95%
Soybean (Glycine max); 125 g ai/ha, preemergence
  plant injury at 125 g/ha: 98%
Soybean (Glycine max); Preemergence, 16 g ai/ha
  plant injury at 16 g/ha: 85%
[12]; 31 g ai/ha, preemergence
  pest or weed control at 31 g/ha: 50%
[12]; 62 g ai/ha, preemergence
  pest or weed control at 62 g/ha: 85%
[12]; 125 g ai/ha, preemergence
  pest or weed control at 125 g/ha: 98%
[12]; Preemergence, 16 g ai/ha
  pest or weed control at 16 g/ha: 5%
[13]; 31 g ai/ha, preemergence
  pest or weed control at 31 g/ha: 100%
[13]; 62 g ai/ha, preemergence
  pest or weed control at 62 g/ha: 100%
[13]; 125 g ai/ha, preemergence
  pest or weed control at 125 g/ha: 100%
[13]; Preemergence, 16 g ai/ha
  pest or weed control at 16 g/ha: 98%
